The record followed here is patent publication US20070276045A1, “Anti-Bacterial Compounds” (priority 2004, published 2007).

Molecules are shown by their SMILES. Values after ≈ are worked out from the molar mass of the structure shown. Bounds are passed on as bounds.

The subject of test [1] is C. xerosis DSM 20170. Nature of the test: Bacteriostatic activity (MIC), microtiter broth turbidity. It counts as cell-based. The settings on record: Corynebacterium xerosis, DSM20170; C. xerosis DSM 20170; growth inhibited by at least 80%, 24 h at 36° C.; read-out: MIC (minimal inhibitory concentration). The text has this:
(§1) The bacteriostatic effects of the compounds of the present invention are compared with those of known anti-bacterial agents against human skin bacteria. Typical bacteria (Corynebacterium and Staphylococcus strains) isolated from the human axilla and commercially available strains are used.
(§2) The different axilla bacteria are isolated from the human axilla according to techniques known in the art, in particular according to standard microbiological practice. They are taxonomically identified by cell morphology, gram-reaction and biochemical tests included in the Api coryne test kit (BioMerieux, France). Strain Staphylococcus epidermidis Ax25 is identified by fatty acid methyl ester analysis (FAME; German type strain collection DSMZ, Germany) . […] The strains are maintained on Tryptic soy broth plates, this standard medium being supplemented with 5 g per Litre of Polyoxyethylene Sorbitan Monooleate (Tween™ 80). Plates are incubated at 36° C. for a period of 48 hours. The bacteria are then swabbed from the plates and suspended in 4 ml of Muller-Hinton broth supplemented with 100 mg of Tween™ 80 per Litre (MH-Tween) and incubated again at 36° C. for 16 hours. Following incubation the bacterial suspensions are diluted in MH-Tween to obtain a final cell density of 10^7 colony forming units per ml. These diluted suspensions of the different test organisms are distributed to different columns of a microtiter plate, 100 μl per well. The test compounds are dissolved in dimethylsulfoxide (DMSO) at various test concentrations and 2.5 μl of these different DMSO solutions are added to the different wells of the test plates. The plates are covered with plastic films and incubated for 24 h at 36° C. with shaking at 250 rpm. The turbidity developing in the microtiter platesi then examined after 24 h to determine microbial growth.

Test [2] concerns Escherichia coli DSM 682. Described as above. Particulars: DSM682; Escherichia coli DSM 682; growth inhibited by at least 80%, 24 h at 36° C.; read-out: MIC (minimal inhibitory concentration). Format: cell-based.
Text: as §1, §2

The subject of test [3] is S. epidermidis Ax 25. The test is described as above. It counts as cell-based. Particulars: Staphylococcus epidermidis, AX25; S. epidermidis Ax 25; growth inhibited by at least 80%, 24 h at 36° C.; read-out: MIC (minimal inhibitory concentration).
Text: as §1, §2

The subject of test [4] is Staphylococcus aureus DSM 799. The description is as above. It counts as cell-based. The settings on record: DSM799; Staphylococcus aureus DSM 799; growth inhibited by at least 80%, 24 h at 36° C.; read-out: MIC (minimal inhibitory concentration).
Text: as §1, §2

Test [5] has as its system Corynebacterium Ax 7. The test is described as above. Format: cell-based, Corynebacterium group G. The settings on record: AX7; Corynebacterium Ax 7; growth inhibited by at least 80%, 24 h at 36° C.; read-out: MIC (minimal inhibitory concentration).
Text: as §1, §2

Test [6] has as its system Corynebacterium Ax 15. The test is described as above. Format: cell-based, Corynebacterium jeikeium. Particulars: AX15; Corynebacterium Ax 15; growth inhibited by at least 80%, 24 h at 36° C.; read-out: MIC (minimal inhibitory concentration).
Text: as §1, §2

Test [7] deals with C. xerosis DSM 20170. As to the kind of experiment: Bactericidal activity (MBC), 60 min contact. It counts as cell-based. The settings on record: Corynebacterium xerosis, DSM20170, 1 h, inoculum completely killed after 60 min incubation, read-out: MBC (minimal bactericidal concentration). The text has this:
(§3) The different axilla bacteria are isolated from the human axilla according to techniques known in the art, in particular according to standard microbiological practice. They are taxonomically identified by cell morphology, gram-reaction and biochemical tests included in the Api coryne test kit (BioMerieux, France). Strain Staphylococcus epidermidis Ax25 is identified by fatty acid methyl ester analysis (FAME; German type strain collection DSMZ, Germany) . Escherichia coli DSM 682, Staphylococcus aureus DSM 799, and Corynebacterium xerosis DSM 20170 are obtained from the German-type strain collection. The strains are maintained on Tryptic soy broth plates, this standard medium being supplemented with 5 g per Litre of Polyoxyethylene Sorbitan Monooleate (TweenTM 80). Plates are incubated at 36° C. for a period of 48 hours. The bacteria are then swabbed from the plates and suspended in 4 ml of Muller-Hinton broth supplemented with 100 mg of TweenTM 80 per Litre (MH-Tween) and incubated again at 36° C. for 16 hours. Following incubation the bacterial suspensions are diluted in MH-Tween to obtain a final cell density of 10^7 colony forming units per ml. These diluted suspensions of the different test organisms are distributed to different columns of a microtiter plate, 100 μl per well. The test compounds are dissolved in dimethylsulfoxide (DMSO) at various test concentrations and 2.5 μl of these different DMSO solutions are added to the different wells of the test plates. The plates are covered with plastic films and incubated for 24 h at 36° C. with shaking at 250 rpm. The turbidity developing in the microtiter […] examined after 24 h to determine microbial growth. […] The bacteria are grown, harvested and diluted under the same conditions as described in the example above and added to microtiter plates (100 μl per well), each well containing 2.5 μl of the different DMSO solutions as described above. After 60 min incubation, 0.5 μl of the bacterial culture from each well (corresponding to 5×10^3 cfu in the control treatment) is transferred to a fresh microtiter plate which contained 100 μl per well of fresh medium. The plates are covered with plastic films and incubated for 24 h at 36° C. with shaking at 250 rpm. The turbidity developing in the microtiter plates is then examined after 24 h to determine microbial growth. The minimal concentration of test compounds which completely killed the bacterial inoculum is determined as the minimal bactericidal concentration (MBC).

Test [8] concerns S. epidermidis Ax 25. As to the kind of experiment: Bactericidal activity (MBC), 60 min contact. Format: cell-based. Particulars: Staphylococcus epidermidis, AX25, 1 h, inoculum completely killed after 60 min incubation, read-out: MBC (minimal bactericidal concentration).
Text: as §3

The subject of test [9] is Corynebacterium Ax 7. Nature of the test: Bactericidal activity (MBC), 60 min contact. It counts as cell-based, Corynebacterium group G. Particulars: AX7, 1 h, inoculum completely killed after 60 min incubation, read-out: MBC (minimal bactericidal concentration).
Text: as §3

Test [10] concerns Corynebacterium Ax 15. Nature of the test: Bactericidal activity (MBC), 60 min contact. It counts as cell-based, Corynebacterium jeikeium. Particulars: AX15, 1 h, inoculum completely killed after 60 min incubation, read-out: MBC (minimal bactericidal concentration).
Text: as §3

`CCCCCCCCC(CCCCCC)C(=O)NCC(=O)O` (stereo not shown) [compound 11, (2-Hexyl-decanoylamino)-acetic acid]: the MIC was ≤ 19 µg/mL in [1]; ≥ 5000 µg/mL in test [2]; 39 µg/mL (≈ 124 µM) in [3]; 55 µg/mL (≈ 175 µM) in test [4]; ≤ 19 µg/mL in test [5]; 78 µg/mL (≈ 249 µM) in [6]. The MBC in [7] was 313 µg/mL (≈ 998 µM); in test [8] it was ≥ 5000 µg/mL; in [9], 156 µg/mL (≈ 498 µM); in test [10], 313 µg/mL (≈ 998 µM).
